According to US20160045505A1, “COMPOUNDS AND COMPOSITIONS FOR THE TREATMENT OF PARASITIC DISEASES” (NOVARTIS AG, priority 2013, published 2016):
pEC50: −log10 of the molar value. Read-outs that look alike come from different tables or passages of the source.

Key:
[1] = tested on: Leishmania donovani axenic amastigote parasites; test: Leishmania donovani axenic amastigote proliferation assay (Cell TiterGlo luminescence, 2 day incubation); type: cell-based; conditions: read-out: L. donovani amastigotes EC50
[2] = tested on: L. donovani HU3 strain in mouse peritoneal macrophages; test: Assay for proliferation of Leishmania parasites in infected mouse peritoneal macrophages (SybrGreen staining, high-content imaging, 5 days); type: cell-based, Leishmania donovani; conditions: L. donovani in mouse peritoneal macrophages, read-out: L. donovani Macrophage EC50
[3] = tested on: Trypanosoma brucei Lister 427 strain, bloodstream form; test: Assay for proliferation of kinetoplastid parasite Trypanosoma brucei (Cell Titer Glo, 48 hours); type: cell-based; conditions: T. brucei Lister 427 bloodstream form, read-out: T. brucei EC50
Summary of the method: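 Bloodstream-form T. brucei Lister 427 in HMI-9 medium was exposed to compound (DMSO vehicle) for 48 hours at 37° C, 5% CO2. Parasite growth was read as ATP by CellTiter-Glo luminescence, with EC50 calculated from percent inhibition.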

[4] = tested on: Trypanosoma cruzi amastigotes (Tulahuen strain expressing Lac-Z) cultured in 3T3 fibroblast cells; test: microbe, parasite or virus in culture; type: cell-based; conditions: Trypanosoma cruzi, TULAHUEN, Fibroblast, T. cruzi amastigotes in 3T3 fibroblast cells, read-out: T cruzi EC50
[5] = Leishmania donovani, axenic amastigotes, inhibition of proliferation
[6] = Leishmania donovani, Peritoneal macrophage, inhibition of proliferation
[7] = Trypanosoma brucei, inhibition of proliferation
[8] = Leishmania donovani, L. donovani axenic amastigotes
[9] = Leishmania donovani, Peritoneal macrophage

Row | Compound | pEC50 [1, 5] | pEC50 [2, 6] | pEC50 [3, 7] | pEC50 ([4]; inhibition of proliferation) | pEC50 [1, 8] | pEC50 [2, 9] | pEC50 ([3]; Trypanosoma brucei) | pEC50 [4] | pEC50 ([1]; axenic amastigotes, inhibition of proliferation) | pEC50 ([2]; inhibition of proliferation) | pEC50 ([3]; inhibition of proliferation)
1 | Cc1nc(C)c(C(=O)Nc2ccc(F)c(-c3cn4cc(NC(=O)C5CN(C(=O)OC(C)(C)C)CCCO5)cnc4n3)c2)o1 (stereo not shown) [Compound 173] | 6.45 | 6.24 | 6.83 | 6.39 | – | – | – | – | – | – | –
2 | Cc1nc(C)c(C(=O)Nc2ccc(F)c(-c3cn4cc(-c5cncc(C(C)C)c5)cnc4n3)c2)o1 [Compound 438] | – | – | – | – | 6.85 | 6.55 | 6.96 | 6.84 | – | – | –
3 | Cc1nc(C)c(C(=O)Nc2ccc(F)c(-c3cn4cc(-c5ccc(CCO)cc5)cnc4n3)c2)o1 [Compound 349] | 7.13 | 6.17 | 7.16 | 6.74 | – | – | – | – | – | – | –
4 | CC1(C(=O)Nc2cnc3nc(-c4cc(NC(=O)N5CCCC5)ccc4F)cn3c2)CCC1 [Compound 145] | 6.65 | 6.33 | 7.35 | 5.76 | – | – | – | – | – | – | –
5 | Cc1nc(C)c(C(=O)Nc2ccc(F)c(-c3cn4cc(NC5=NCC(C)(C)O5)cnc4n3)c2)o1 [Compound 507] | – | – | – | – | 5.73 | 5.24 | 5.90 | 5.00 | – | – | –
6 | Cc1nc(C)c(C(=O)Nc2ccc(F)c(-c3cn4cc(NCc5c[nH]cn5)cnc4n3)c2)o1 [Compound 480] | – | – | – | – | < 4.65 | < 4.30 | 5.07 | < 4.70 | – | – | –
7 | Cc1ncc(C(=O)Nc2cnc3nc(-c4cc(NC(=O)N5CCCC5)ccc4F)cn3c2)o1 [Compound 132] | 5.54 | < 4.30 | 5.81 | < 4.86 | – | – | – | – | – | – | –
8 | Cc1nc(C)c(C(=O)Nc2ccc(F)c(-c3cn4cc(-c5cccc(F)n5)cnc4n3)c2)o1 [Compound 434] | – | – | – | – | 6.97 | 6.03 | 6.80 | 7.38 | – | – | –
9 | Cc1nc(C)c(C(=O)Nc2ccc(F)c(-c3cn4cc(NC(=O)C5(C)CCC5)cnc4n3)c2)o1 [Compound 114] | 6.84 | 6.58 | 6.98 | 5.97 | – | – | – | – | – | – | –
10 | CN(C)C(=O)Nc1ccc(F)c(-c2cn3cc(C(F)(F)F)cnc3n2)c1 [Compound 298] | 6.11 | 5.65 | 6.45 | 6.28 | – | – | – | – | – | – | –
11 | Cc1nc(C)c(C(=O)Nc2ccc(F)c(-c3cn4cc(-c5cnn(C6CCOCC6)c5)cnc4n3)c2)o1 [Compound 385] | – | – | – | – | 6.57 | < 4.44 | 6.43 | 5.93 | – | – | –
12 | Cc1cccc(-c2cnc3nc(-c4cc(NC(=O)N5CCCC5)ccc4F)cn3c2)n1 [Compound 455, N-(4-fluoro-3-(6-(6-methylpyridin-2-yl)imidazo[1,2-a]pyrimidin-2-yl)phenyl)pyrrolidine-1-carboxamide] | – | – | – | – | 6.65 | 6.17 | 6.87 | 6.67 | – | – | –
13 | Cc1nc(C)c(C(=O)Nc2ccc(F)c(-c3cn4cc(NC(=O)OCC(C)C)cnc4n3)c2)o1 [Compound 308] | 6.68 | 6.47 | 6.88 | 6.48 | – | – | – | – | – | – | –
14 | Cc1ncc(C(=O)Nc2cnc3nc(-c4cc(NC(=O)c5oc(C)nc5C)ccc4F)cn3c2)[nH]1 [Compound 190] | 6.11 | 5.07 | 6.61 | 4.91 | – | – | – | – | – | – | –
15 | O=C1CC(C(=O)Nc2cnc3nc(-c4cc(NC(=O)N5CCCC5)ccc4F)cn3c2)C1 [Compound 141] | 6.06 | 5.08 | 5.87 | < 4.70 | – | – | – | – | – | – | –
16 | COc1cccc(-c2cnc3nc(-c4cc(NC(=O)c5oc(C)nc5C)ccc4F)cn3c2)n1 [Compound 458] | – | – | – | – | 7.12 | 6.29 | 6.92 | 7.37 | – | – | –
17 | Cc1nc(C)c(C(=O)Nc2ccc(F)c(-c3cn4cc(-c5ccccc5S(C)(=O)=O)cnc4n3)c2)o1 [Compound 397] | – | – | – | – | 6.47 | 6.35 | 7.17 | 6.70 | – | – | –
18 | CC(C)OC(=O)Nc1cnc2nc(-c3cc(NC(=O)c4nccs4)ccc3F)cn2c1 [Compound 242] | 6.16 | 5.66 | 6.32 | 6.70 | – | – | – | – | – | – | –
19 | Cc1ccc(-c2cnc3nc(-c4cc(NC(=O)c5oc(C)nc5C)ccc4F)cn3c2)nn1 [Compound 448] | – | – | – | – | 6.97 | 5.29 | 6.80 | 6.10 | – | – | –
20 | CC(C)OC(=O)Nc1cnc2nc(-c3cc(NC(=O)N(C(C)C)C(C)C)ccc3F)cn2c1 [Compound 228] | < 4.60 | 4.71 | 4.46 | 5.00 | – | – | – | – | – | – | –

Row | Compound | pEC50 [1, 5] | pEC50 [2, 6] | pEC50 [3, 7] | pEC50 ([4]; inhibition of proliferation) | pEC50 [1, 8] | pEC50 [2, 9] | pEC50 ([3]; Trypanosoma brucei) | pEC50 [4] | pEC50 ([1]; axenic amastigotes, inhibition of proliferation) | pEC50 ([2]; inhibition of proliferation) | pEC50 ([3]; inhibition of proliferation)
21 | Cc1nc(C)c(C(=O)Nc2ccc(F)c(-c3cn4cc(-c5ccn[nH]5)cnc4n3)c2)o1 [Compound 369] | 6.55 | 6.53 | 6.81 | 6.01 | – | – | – | – | – | – | –
22 | Cc1nc(C)c(C(=O)Nc2ccc(F)c(-c3cn4cc(NC5=NCC(C)(C)N5)cnc4n3)c2)o1 [Compound 509] | – | – | – | – | < 4.60 | < 4.30 | 4.99 | < 4.70 | – | – | –
23 | Cc1nc(C)c(C(=O)Nc2ccc(F)c(-c3cn4cc(NC(=O)[C@@H]5[C@H](N)[C@@H]6C=C[C@H]5C6)cnc4n3)c2)o1 [Compound 180] | < 4.60 | < 4.30 | 5.36 | < 4.70 | – | – | – | – | – | – | –
24 | CC(C)OC(=O)Nc1cnc2nc(-c3cc(NC(=O)c4cccs4)ccc3F)cn2c1 [Compound 75] | 6.24 | < 5.22 | 6.32 | 6.82 | – | – | – | – | – | – | –
25 | Cc1nc(C)c(C(=O)Nc2ccc(F)c(-c3cn4cc(-c5ncccc5C)cnc4n3)c2)o1 [Compound 453] | – | – | – | – | 7.77 | 7.64 | 7.68 | 7.82 | – | – | –
26 | O=C(Nc1ccc(Cl)c(-c2cn3cc(-c4ccc(OC5CCNCC5)cc4)cnc3n2)c1)N1CCCC1 [Compound 574] | – | – | – | – | 6.13 | 6.05 | 6.34 | 6.36 | – | – | –
27 | O=C(Nc1ccc(F)c(-c2cn3cc(C4=CCCC4)cnc3n2)c1)N1CCCC1 [Compound 354] | 7.59 | 6.99 | 8.40 | 8.10 | – | – | – | – | – | – | –
28 | Cc1nc(C)c(C(=O)Nc2ccc(F)c(-c3cn4cc(NC5=NCC(C(F)(F)F)O5)cnc4n3)c2)o1 (stereo not shown) [Compound 508] | – | – | – | – | 5.77 | 5.08 | 5.36 | 4.94 | – | – | –
29 | Cc1nc(C)c(C(=O)Nc2ccc(F)c(-c3cn4cc(NC5=NCC(C)O5)cnc4n3)c2)o1 (stereo not shown) [Compound 504] | – | – | – | – | 5.53 | 5.26 | 6.01 | 4.97 | – | – | –
30 | Cc1nc(C)c(C(=O)Nc2ccc(F)c(-c3cn4cc(NC(=O)C5CCCCO5)cnc4n3)c2)o1 (single isomer, unassigned) [Compound 184] | – | – | – | 6.25 | – | – | – | – | 6.84 | 6.48 | 6.76
31 | CCNc1cnc2nc(-c3cc(NC(=O)c4oc(C)nc4C)ccc3F)cn2c1 [Compound 582, N-(3-(6-(ethylamino)imidazo[1,2-a]pyrimidin-2-yl)-4-fluorophenyl)-2,4-dimethyloxazole-5-carboxamide] | – | – | – | – | 6.23 | 6.03 | 6.32 | 6.33 | – | – | –
32 | Cc1nc(C)c(C(=O)Nc2ccc(F)c(-c3cn4cc(-c5ccc(N6CCOCC6)cc5)cnc4n3)c2)o1 [Compound 383] | – | – | – | – | 6.84 | 6.28 | 6.48 | 6.86 | – | – | –
33 | CCOC(=O)Nc1cnc2nc(-c3cc(NC(=O)c4oc(C)nc4C)ccc3F)cn2c1 [Compound 305] | 6.95 | 6.57 | 6.79 | 6.30 | – | – | – | – | – | – | –
34 | Cc1nc(C)c(C(=O)Nc2ccc(F)c(-c3cn4cc(C5CCC5)cnc4n3)c2)o1 [Compound 210] | 7.33 | 7.07 | 7.47 | 7.51 | – | – | – | – | – | – | –
35 | Cc1ccccc1-c1cnc2nc(-c3cc(NC(=O)N4CCCC4)ccc3F)cn2c1 [Compound 356] | 7.06 | 6.48 | 7.74 | 7.80 | – | – | – | – | – | – | –
36 | COCCOC(=O)Nc1cnc2nc(-c3cc(NC(=O)c4oc(C)nc4C)ccc3F)cn2c1 [Compound 304] | 6.27 | 4.98 | 5.85 | 5.62 | – | – | – | – | – | – | –
37 | O=C1CCC(C(=O)Nc2cnc3nc(-c4cc(NC(=O)N5CCCC5)ccc4F)cn3c2)N1 (stereo not shown) [Compound 125] | < 4.66 | < 4.30 | 5.10 | < 4.70 | – | – | – | – | – | – | –
38 | CC(C)OC(=O)Nc1cnc2nc(-c3cccc(NC(=O)c4cnco4)c3)cn2c1 [Compound 203] | 6.01 | 4.86 | 5.94 | 4.98 | – | – | – | – | – | – | –
39 | C=C(C)c1cnc2nc(-c3cc(NC(=O)c4oc(C)nc4C)ccc3F)cn2c1 [Compound 537, N-(4-fluoro-3-(6-(prop-1-en-2-yl)imidazo[1,2-a]pyrimidin-2-yl)phenyl)-2,4-dimethyloxazole-5-carboxamide] | – | – | – | – | 6.91 | 6.54 | 6.79 | 6.99 | – | – | –
40 | Cc1nc(C)c(C(=O)Nc2ccc(F)c(-c3cn4cc(NCC(C)C)cnc4n3)c2)o1 [Compound 463] | – | – | – | – | 6.24 | 6.29 | 6.62 | 6.79 | – | – | –
